Experimental data taken from patent US20250263408A1 (Uniquest Pty Ltd, priority 2022, published 2025).

Tests used:
Ba/F3-Syk cells = target: T1, Ba/F3-Syk cells (Homo sapiens, UniProt P43405); test: Ba/F3 Proliferation Assay, Ba/F3-Syk cells (Resazurin); format: cell-based; conditions: 48-hour incubation
T1 construct: fused on or other part: Possible but unprinted fusion partner: TEL (ETV6), the usual partner for Ba/F3 lines transformed by Syk; Nothing on a partner is printed
Experimental: (§1) Ba/F3-Syk and Ba/F3-WT (wild type) cells were maintained at ≤1×10^6 cell/mL in RPMI (Life Technologies) with 10% FBS at 37° C. and 5% CO2 for a maximum of four weeks. Ba/F3-WT additionally contained 2 ng/mL mIL-3 (R&D Systems) to induce cellular growth. Cells were counted and dispensed at 5000 cells/well using a Multidrop Liquid Dispenser in a volume of 45 μL into black 384-well TC treated plates (Greiner) and incubated for four hours in complete media (+mIL-3 for Ba/F3-WT). Compounds were serially diluted in 100% DMSO, prior to an intermediate dilution in RPMI media. 5 μL of compound (0.4% final DMSO) was added to the cells, followed by a 48-hour incubation period. 5 μL of Resazurin (60 μM final) was then added and cells were incubated at 37° C. for three hours, before fluorescence (λex530/λem585) was measured using an Ensight Multimode Plate Reader (Perkin Elmer).

[1] = system: Ba/F3-WT (wild type) cells; test: Ba/F3 Proliferation Assay, Ba/F3-WT (wild type) cells with mIL-3 (Resazurin); format: cell-based; conditions: Mus musculus, BaF3, 48 h, Ba/F3-WT cells +mIL-3, 48-hour incubation
Experimental: as §1

EC50 (Ba/F3-Syk cells) | EC50 [1] | Compound
390 nM | 1590 nM | Clc1ccc(-c2cc3ncccc3c(OC[C@@H]3CNCCO3)n2)s1 [Compound 2.33, 7-(5-chlorothiophen-2-yl)-5-{[(2S)-morpholin-2-yl]methoxy}-1,6-naphthyridine]
394 nM | 1560 nM | Clc1csc(-c2cc3ncccc3c(OC[C@@H]3CNCCO3)n2)c1 [Compound 2.34, 7-(4-chlorothiophen-2-yl)-5-{[(2S)-morpholin-2-yl]methoxy}-1,6-naphthyridine]
667 nM | 619 nM | Cc1cc(-c2cc3ncccc3c(OC[C@@H]3CNCCO3)n2)sc1Cl [Compound 2.35, 7-(5-chloro-4-methylthiophen-2-yl)-5-{[(2S)-morpholin-2-yl]methoxy}-1,6-naphthyridine]
279 nM | 2050 nM | CCc1ccc(-c2cc3ncccc3c(OC[C@@H]3CNCCO3)n2)s1 [Compound 2.36, 7-(5-ethylthiophen-2-yl)-5-{[(2S)-morpholin-2-yl]methoxy}-1,6-naphthyridine]
1230 nM | 2830 nM | Cc1cc(-c2cc3ncccc3c(OC[C@@H]3CNCCO3)n2)c(C)s1 [Compound 2.37, 7-(2,5-dimethylthiophen-3-yl)-5-{[(2S)-morpholin-2-yl]methoxy}-1,6-naphthyridine]
1450 nM | > 10000 nM | Cn1cccc1-c1cc2ncccc2c(OC[C@@H]2CNCCO2)n1 [Compound 2.38, 7-(1-methyl-1H-pyrrol-2-yl)-5-{[(2S)-morpholin-2-yl]methoxy}-1,6-naphthyridine]
243 nM | 1700 nM | Clc1cc(-c2cc3ncccc3c(OC[C@@H]3CNCCO3)n2)cs1 [Compound 2.39, 7-(5-chlorothiophen-3-yl)-5-{[(2S)-morpholin-2-yl]methoxy}-1,6-naphthyridine]
645 nM | > 10000 nM | Cc1cc(-c2cc3ncccc3c(OC[C@@H]3CNCCO3)n2)c(C)n1C [Compound 2.40, 5-{[(2S)-morpholin-2-yl]methoxy}-7-(1,2,5-trimethyl-1H-pyrrol-3-yl)-1,6-naphthyridine]
127 nM | 2320 nM | Cn1cc(-c2cc3ncccc3c(OCC3CNCCCO3)n2)cn1 (stereo not drawn) [Compound 2.41, 7-(1-methyl-1H-pyrazol-4-yl)-5-[(1,4-oxazepan-2-yl)methoxy]-1,6-naphthyridine]
48 nM | 3270 nM | CC(C)(C)n1cc(-c2cc3ncccc3c(OCC3CNCCCO3)n2)cn1 (stereo not drawn) [Compound 2.47, 7-(1-tert-butyl-1H-pyrazol-4-yl)-5-[(1,4-oxazepan-2-yl)methoxy]-1,6-naphthyridine]
119 nM | 4060 nM | Cn1ccc(-c2cc3ncccc3c(OCC3CNCCCO3)n2)c1 (stereo not drawn) [Compound 2.48, 7-(1-methyl-1H-pyrrol-3-yl)-5-[(1,4-oxazepan-2-yl)methoxy]-1,6-naphthyridine]
151 nM | 6180 nM | Cn1cc(-c2cc3ncccc3c(OC[C@@H]3CNCCCO3)n2)cn1 [Compound 2.50, 7-(1-methyl-1H-pyrazol-4-yl)-5-{[(2S)-1,4-oxazepan-2-yl]methoxy}-1,6-naphthyridine]
32.9 nM | 1460 nM | CC(C)n1cc(-c2cc3ncccc3c(OC[C@@H]3CNCC4(CCC4)O3)n2)cn1 [Compound 2.56, 5-{[(6S)-5-oxa-8-azaspiro[3.5]nonan-6-yl]methoxy}-7-[1-(propan-2-yl)-1H-pyrazol-4-yl]-1,6-naphthyridine]
58.9 nM | 985 nM | CC(C)(C)n1cc(-c2cc3ncccc3c(OC[C@H]3CNCCCO3)n2)cn1 [Compound 2.59, 7-(1-tert-butyl-1H-pyrazol-4-yl)-5-{[(2R)-1,4-oxazepan-2-yl]methoxy}-1,6-naphthyridine]
9.7 nM | 2610 nM | CC(C)(C)n1ccc(-c2cc3ncccc3c(OC[C@@H]3CNCC4(CC4)O3)n2)c1 [Compound 2.61, 7-(1-tert-butyl-1H-pyrrol-3-yl)-5-{[(5S)-4-oxa-7-azaspiro[2.5]octan-5-yl]methoxy}-1,6-naphthyridine]
